ChEMBL document CHEMBL4033665, “Synthesis and applications of benzohydroxamic acid-based histone deacetylase inhibitors” (Eur J Med Chem, 2017)

What was measured:
Histone deacetylase 11 = biological target: T1, Histone deacetylase 11 (Homo sapiens, UniProt Q96DB2); assay: Inhibition of human HDAC11 after 15 mins by trypsin-coupled fluorescence assay
T1 sequence (Q96DB2 whole entry): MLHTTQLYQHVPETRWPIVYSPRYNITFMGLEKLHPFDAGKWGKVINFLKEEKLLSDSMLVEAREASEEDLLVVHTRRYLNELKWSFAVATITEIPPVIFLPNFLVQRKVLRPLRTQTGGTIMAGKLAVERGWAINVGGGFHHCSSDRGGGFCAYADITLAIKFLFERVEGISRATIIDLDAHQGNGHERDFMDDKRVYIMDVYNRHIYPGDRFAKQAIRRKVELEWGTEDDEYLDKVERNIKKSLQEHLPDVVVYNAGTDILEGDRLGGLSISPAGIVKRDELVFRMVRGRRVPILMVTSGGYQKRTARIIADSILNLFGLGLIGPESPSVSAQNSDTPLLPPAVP

[1] = biological target: T2, Polyamine deacetylase HDAC10 (Homo sapiens, UniProt Q969S8); assay: Inhibition of human HDAC10 after 15 mins by trypsin-coupled fluorescence assay
T2 sequence (Q969S8 whole entry): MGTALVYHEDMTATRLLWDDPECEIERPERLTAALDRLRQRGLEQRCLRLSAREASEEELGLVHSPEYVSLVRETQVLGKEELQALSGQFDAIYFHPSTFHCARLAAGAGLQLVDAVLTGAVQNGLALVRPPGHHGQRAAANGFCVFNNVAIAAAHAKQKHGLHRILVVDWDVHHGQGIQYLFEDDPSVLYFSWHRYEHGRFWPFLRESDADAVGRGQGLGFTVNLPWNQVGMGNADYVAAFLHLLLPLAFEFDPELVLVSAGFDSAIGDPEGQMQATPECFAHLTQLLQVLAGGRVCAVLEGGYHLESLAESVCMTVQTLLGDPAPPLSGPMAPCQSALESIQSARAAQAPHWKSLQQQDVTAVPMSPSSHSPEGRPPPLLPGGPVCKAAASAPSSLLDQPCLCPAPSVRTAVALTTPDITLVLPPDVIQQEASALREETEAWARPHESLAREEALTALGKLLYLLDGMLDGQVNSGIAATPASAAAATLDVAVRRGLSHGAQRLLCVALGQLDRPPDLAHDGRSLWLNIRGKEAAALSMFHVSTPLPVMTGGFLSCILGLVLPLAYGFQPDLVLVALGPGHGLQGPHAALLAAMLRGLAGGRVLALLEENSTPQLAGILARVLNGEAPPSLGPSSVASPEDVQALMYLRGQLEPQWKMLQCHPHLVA

Histone deacetylase 5 = Histone deacetylase 5 (Homo sapiens, UniProt Q9UQL6); assay: Inhibition of human HDAC5 after 15 mins by trypsin-coupled fluorescence assay
Homo sapiens [2] = species: Homo sapiens; assay: Selectivity index, ratio of IC50 for human HDAC2 to IC50 for human HDAC6
Histone deacetylase 4 = Histone deacetylase 4 (Homo sapiens, UniProt P56524); assay: Inhibition of human HDAC4 after 15 mins by trypsin-coupled fluorescence assay
Histone deacetylase 8 = biological target: T3, Histone deacetylase 8 (Homo sapiens, UniProt Q9BY41); assay: Inhibition of human HDAC8 after 15 mins by trypsin-coupled fluorescence assay
T3 sequence (Q9BY41 whole entry): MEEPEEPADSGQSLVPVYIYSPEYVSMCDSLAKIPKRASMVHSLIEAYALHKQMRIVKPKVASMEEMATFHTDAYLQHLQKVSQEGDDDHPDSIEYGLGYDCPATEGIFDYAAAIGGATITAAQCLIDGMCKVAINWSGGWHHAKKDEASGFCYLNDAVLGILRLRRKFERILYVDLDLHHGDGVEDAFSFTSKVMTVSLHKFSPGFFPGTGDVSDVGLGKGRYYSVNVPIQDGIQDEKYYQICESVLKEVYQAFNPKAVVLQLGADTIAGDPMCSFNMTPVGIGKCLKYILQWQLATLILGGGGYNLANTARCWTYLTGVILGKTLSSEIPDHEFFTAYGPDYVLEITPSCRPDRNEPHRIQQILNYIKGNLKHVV

Histone deacetylase 9 = Histone deacetylase 9 (Homo sapiens, UniProt Q9UKV0); assay: Inhibition of human HDAC9 after 15 mins by trypsin-coupled fluorescence assay
[3] = biological target: T4, Protein deacetylase HDAC6 (Homo sapiens, UniProt Q9UBN7); assay: Inhibition of human HDAC6 after 15 mins by trypsin-coupled fluorescence assay
T4 sequence (Q9UBN7 whole entry): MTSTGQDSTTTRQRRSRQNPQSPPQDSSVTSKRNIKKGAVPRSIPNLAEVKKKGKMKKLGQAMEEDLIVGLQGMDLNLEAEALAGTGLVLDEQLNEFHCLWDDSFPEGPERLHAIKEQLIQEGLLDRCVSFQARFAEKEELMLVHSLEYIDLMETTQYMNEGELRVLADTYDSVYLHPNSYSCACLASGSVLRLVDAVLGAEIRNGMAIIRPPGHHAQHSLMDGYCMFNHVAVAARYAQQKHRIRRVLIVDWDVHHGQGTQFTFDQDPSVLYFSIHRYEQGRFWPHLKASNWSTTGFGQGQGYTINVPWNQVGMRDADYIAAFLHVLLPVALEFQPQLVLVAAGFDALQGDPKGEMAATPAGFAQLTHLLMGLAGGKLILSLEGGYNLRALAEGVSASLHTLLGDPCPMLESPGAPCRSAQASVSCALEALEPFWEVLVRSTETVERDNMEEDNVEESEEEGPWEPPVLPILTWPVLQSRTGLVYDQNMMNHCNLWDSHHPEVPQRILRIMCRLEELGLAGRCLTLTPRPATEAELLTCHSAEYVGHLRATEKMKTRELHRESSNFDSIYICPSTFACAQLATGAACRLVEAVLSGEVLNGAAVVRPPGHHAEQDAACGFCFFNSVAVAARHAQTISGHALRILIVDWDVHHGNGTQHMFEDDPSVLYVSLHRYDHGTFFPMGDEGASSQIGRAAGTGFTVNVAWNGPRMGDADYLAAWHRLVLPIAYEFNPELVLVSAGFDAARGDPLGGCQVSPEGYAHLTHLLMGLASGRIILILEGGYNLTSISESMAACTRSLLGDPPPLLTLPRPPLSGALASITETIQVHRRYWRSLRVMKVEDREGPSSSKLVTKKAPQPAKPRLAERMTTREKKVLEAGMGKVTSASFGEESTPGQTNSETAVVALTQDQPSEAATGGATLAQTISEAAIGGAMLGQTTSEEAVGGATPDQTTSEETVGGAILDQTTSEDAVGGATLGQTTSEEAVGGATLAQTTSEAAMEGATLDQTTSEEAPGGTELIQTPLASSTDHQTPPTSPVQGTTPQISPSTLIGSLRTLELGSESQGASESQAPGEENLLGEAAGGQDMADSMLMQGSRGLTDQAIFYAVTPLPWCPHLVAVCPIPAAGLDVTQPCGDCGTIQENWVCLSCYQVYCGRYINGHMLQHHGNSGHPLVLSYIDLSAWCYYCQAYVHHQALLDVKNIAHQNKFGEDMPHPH

Histone deacetylase 2 = Histone deacetylase 2 (Homo sapiens, UniProt Q92769); assay: Inhibition of human HDAC2 after 15 mins by trypsin-coupled fluorescence assay
Homo sapiens [4] = species: Homo sapiens; assay: Selectivity index, ratio of IC50 for human HDAC11 to IC50 for human HDAC6

Sequence of Histone deacetylase 5 (Q9UQL6 whole entry): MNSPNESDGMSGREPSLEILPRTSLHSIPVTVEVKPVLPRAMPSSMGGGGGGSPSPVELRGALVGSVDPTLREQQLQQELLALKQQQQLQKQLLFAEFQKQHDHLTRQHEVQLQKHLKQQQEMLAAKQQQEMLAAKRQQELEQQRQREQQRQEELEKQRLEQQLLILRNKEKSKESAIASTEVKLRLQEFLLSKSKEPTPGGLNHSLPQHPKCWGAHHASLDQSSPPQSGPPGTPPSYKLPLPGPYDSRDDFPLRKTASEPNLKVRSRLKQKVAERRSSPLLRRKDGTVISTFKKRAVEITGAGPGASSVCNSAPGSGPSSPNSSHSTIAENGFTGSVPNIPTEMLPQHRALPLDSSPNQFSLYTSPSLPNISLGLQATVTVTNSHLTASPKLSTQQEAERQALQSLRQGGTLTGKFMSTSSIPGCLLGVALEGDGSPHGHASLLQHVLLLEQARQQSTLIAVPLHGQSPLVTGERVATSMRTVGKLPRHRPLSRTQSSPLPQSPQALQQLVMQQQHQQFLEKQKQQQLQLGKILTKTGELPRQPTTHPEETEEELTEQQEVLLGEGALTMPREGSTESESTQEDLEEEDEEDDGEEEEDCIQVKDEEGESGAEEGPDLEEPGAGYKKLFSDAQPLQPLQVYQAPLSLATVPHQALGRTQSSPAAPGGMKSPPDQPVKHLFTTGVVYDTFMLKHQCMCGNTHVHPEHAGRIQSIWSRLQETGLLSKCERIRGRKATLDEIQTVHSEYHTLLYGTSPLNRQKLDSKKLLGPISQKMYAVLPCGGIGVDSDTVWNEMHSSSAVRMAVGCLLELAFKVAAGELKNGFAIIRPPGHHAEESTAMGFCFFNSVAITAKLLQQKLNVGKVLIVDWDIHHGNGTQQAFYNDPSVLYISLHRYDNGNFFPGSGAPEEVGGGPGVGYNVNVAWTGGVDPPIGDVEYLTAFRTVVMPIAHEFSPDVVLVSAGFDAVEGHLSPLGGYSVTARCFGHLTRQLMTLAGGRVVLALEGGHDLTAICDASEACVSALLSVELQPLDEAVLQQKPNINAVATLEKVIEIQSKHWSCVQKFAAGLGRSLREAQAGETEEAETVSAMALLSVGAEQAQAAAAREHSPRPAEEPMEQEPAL
Sequence of Histone deacetylase 2 (Q92769 whole entry): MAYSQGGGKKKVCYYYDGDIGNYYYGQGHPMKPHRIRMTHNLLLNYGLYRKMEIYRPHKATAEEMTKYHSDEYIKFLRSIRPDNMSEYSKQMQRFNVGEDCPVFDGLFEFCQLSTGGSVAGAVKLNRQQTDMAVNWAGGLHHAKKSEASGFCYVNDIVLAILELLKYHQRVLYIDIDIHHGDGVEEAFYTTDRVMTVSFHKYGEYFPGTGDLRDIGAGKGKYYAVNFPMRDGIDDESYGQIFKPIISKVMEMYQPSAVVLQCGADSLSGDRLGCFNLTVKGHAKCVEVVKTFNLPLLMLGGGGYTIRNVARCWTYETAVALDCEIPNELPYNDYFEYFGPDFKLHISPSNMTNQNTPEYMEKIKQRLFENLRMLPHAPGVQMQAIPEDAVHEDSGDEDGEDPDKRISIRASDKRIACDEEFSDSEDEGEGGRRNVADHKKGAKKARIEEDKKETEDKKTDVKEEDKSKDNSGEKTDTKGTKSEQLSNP
Sequence of Histone deacetylase 4 (P56524 whole entry): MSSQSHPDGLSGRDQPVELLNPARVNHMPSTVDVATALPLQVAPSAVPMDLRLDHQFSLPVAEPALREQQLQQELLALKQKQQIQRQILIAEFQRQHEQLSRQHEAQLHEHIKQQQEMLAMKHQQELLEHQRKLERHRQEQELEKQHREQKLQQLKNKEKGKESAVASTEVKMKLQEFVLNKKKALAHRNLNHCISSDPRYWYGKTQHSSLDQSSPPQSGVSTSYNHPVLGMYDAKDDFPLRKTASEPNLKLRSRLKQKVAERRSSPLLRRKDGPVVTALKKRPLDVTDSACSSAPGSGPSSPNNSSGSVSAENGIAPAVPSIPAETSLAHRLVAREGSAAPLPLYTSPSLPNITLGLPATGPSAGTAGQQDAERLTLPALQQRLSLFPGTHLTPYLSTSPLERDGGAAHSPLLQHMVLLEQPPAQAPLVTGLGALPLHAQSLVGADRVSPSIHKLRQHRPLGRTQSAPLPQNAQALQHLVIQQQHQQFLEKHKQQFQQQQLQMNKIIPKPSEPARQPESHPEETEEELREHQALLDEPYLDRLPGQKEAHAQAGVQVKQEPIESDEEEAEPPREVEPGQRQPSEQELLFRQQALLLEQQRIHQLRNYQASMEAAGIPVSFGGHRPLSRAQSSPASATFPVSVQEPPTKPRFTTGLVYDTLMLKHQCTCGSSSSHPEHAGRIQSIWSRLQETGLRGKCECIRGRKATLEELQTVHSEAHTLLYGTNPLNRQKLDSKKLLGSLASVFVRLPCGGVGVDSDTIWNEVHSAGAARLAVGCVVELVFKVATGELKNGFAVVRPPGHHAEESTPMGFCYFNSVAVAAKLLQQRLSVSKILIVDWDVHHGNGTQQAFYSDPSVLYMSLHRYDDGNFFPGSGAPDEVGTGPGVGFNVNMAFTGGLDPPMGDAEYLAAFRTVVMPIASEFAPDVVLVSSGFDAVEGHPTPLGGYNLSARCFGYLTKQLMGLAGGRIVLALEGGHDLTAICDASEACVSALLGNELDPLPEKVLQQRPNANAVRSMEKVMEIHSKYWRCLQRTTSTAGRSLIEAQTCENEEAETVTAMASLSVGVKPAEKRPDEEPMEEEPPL
Sequence of Histone deacetylase 9 (Q9UKV0 whole entry): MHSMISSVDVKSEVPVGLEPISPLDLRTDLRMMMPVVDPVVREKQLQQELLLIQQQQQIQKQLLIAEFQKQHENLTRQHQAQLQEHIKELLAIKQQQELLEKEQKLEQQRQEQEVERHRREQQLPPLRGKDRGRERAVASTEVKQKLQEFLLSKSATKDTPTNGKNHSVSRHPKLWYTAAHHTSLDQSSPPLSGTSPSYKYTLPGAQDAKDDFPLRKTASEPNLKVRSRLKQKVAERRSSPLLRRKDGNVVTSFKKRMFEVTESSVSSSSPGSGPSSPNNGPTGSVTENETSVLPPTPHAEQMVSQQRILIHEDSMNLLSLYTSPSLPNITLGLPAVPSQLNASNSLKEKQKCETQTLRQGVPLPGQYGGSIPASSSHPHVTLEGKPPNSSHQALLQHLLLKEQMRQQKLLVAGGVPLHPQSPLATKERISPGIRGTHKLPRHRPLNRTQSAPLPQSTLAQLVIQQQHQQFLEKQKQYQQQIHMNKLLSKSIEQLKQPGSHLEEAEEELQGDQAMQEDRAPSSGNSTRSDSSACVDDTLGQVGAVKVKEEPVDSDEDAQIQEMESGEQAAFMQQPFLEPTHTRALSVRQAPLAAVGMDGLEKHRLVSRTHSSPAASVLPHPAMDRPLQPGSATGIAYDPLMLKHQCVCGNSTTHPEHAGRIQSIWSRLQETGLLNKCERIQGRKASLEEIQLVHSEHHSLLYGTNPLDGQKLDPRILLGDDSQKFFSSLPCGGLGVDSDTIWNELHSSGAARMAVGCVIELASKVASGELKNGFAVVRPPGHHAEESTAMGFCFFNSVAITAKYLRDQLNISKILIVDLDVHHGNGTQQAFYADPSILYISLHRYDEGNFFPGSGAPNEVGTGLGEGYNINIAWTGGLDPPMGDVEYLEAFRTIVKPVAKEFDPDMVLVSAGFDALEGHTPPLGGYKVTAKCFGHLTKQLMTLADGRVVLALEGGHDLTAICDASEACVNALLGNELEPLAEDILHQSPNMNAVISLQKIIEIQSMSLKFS

IC50 (Histone deacetylase 11): 3700 nM
IC50 [1]: 700 nM
IC50 (Histone deacetylase 5): 9500 nM
Ratio IC50 (Homo sapiens [2]): 15 to 400
IC50 (Histone deacetylase 4): 2200 nM
IC50 (Histone deacetylase 8): 400 nM
IC50 (Histone deacetylase 9): 5300 nM
IC50 [3]: 25 nM
IC50 (Histone deacetylase 2): 2200 nM
Ratio IC50 (Homo sapiens [4]): 15 to 400
SMILES: O=C(NO)c1ccc(CN(CCO)C(=O)Cc2ccccc2)cc1
